The target of data set [1] is T1, hFXR (Homo sapiens, UniProt Q96RI1).
T1 construct: expressed in transfected cells; host or cells: CV-1 cells
T1 sequence (Q96RI1 1-486): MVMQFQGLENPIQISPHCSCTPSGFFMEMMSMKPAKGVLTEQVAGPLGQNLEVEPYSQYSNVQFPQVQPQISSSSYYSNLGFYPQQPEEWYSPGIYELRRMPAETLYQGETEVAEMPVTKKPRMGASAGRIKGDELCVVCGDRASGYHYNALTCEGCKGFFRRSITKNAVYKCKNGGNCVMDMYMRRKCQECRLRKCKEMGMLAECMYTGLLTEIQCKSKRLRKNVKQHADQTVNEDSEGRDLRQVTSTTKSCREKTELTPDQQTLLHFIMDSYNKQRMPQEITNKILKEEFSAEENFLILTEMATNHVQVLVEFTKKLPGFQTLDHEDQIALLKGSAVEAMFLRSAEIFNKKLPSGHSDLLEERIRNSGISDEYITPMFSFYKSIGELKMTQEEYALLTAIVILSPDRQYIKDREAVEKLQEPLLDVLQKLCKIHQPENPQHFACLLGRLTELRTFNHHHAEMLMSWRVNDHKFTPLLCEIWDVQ
T1 sequence (P19793 1-462 partner): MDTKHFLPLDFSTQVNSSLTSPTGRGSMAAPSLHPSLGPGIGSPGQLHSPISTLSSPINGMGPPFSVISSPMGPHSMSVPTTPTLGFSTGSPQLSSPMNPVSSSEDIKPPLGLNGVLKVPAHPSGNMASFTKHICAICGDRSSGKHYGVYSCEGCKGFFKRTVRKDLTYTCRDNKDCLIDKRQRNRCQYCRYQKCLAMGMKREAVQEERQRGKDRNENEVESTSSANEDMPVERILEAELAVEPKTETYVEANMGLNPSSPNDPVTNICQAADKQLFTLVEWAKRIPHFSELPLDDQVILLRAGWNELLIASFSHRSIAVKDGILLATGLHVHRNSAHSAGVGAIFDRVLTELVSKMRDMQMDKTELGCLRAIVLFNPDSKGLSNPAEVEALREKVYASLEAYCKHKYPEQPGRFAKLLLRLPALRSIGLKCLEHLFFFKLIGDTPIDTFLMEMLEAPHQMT
As to the kind of experiment: In Vitro FXR Assay (TK). Type of data set: cell-based. The settings on record: transfected CV-1 cells (hFXR, hRXR, TK-ECRE-luc), 18 hrs incubation, luminescence. The method, then:
CV-1 cells were seeded at a density of 2,000,000 cells in a T175 flask with DMEM+10% charcoal double-stripped FBS and incubated at 37° C. in 5% CO2 for 18 h (O/N).
After 18 h of incubation, the medium in the T175 flask was changed with fresh DMEM+10% charcoal super-stripped serum. In a polypropylene tube, 2500 μL OptiMEM (Life Technologies, Cat #31985-062) was combined with expression plasmids for hFXR, hRXR, TK-ECRE-luc and pCMX-YFP. The tube was then briefly vortexed and incubated at room temperature for 5 minutes. Transfection reagent (X-tremeGENE HP from Roche, Cat #06 366 236 001) was added to the OptiMEM/plasmid mixture vortexed and incubated at room temperature for 20 minutes. Following incubation, the transfection reagent/DNA mixture complex was added to cells in the T175 flask and the cells were incubated at 37° C. in 5% CO2 for 18 h (O/N).
Compound 1 was serially diluted in DMSO and added to transfected CV-1 cells. The cells were then incubated for 18 hrs. The next day cells were lysed and examined for luminescence. Compound 1 TK hFXR: EC50≤0.01 μM.

Data set [2] deals with T2, FXR (Homo sapiens, UniProt Q96RI1).
T2 sequence (Q96RI1 1-486): T1 sequence (Q96RI1 1-486)
The following applies: published clinical studies, higher administered doses; cited from earlier work.

What is called EC50 is the concentration that produces a half-maximal response. A low value points to an effect from little substance. In data set [1], `COc1ccc(C23CCC(CN(c4cc(-c5cnn(C(C)(C)C)c5)ccn4)C(=O)[C@H]4CC[C@H](OC(=O)N5CC(O)C5)CC4)(CC2)CC3)cc1C` [Compound 1, 4-((4-(1-(tert-butyl)-1H-pyrazol-4-yl)pyridin-2-yl)((4-(4-methoxy-3-methylphenyl)bicyclo[2.2.2]octan-1-yl)methyl)carbamoyl)cyclohexyl 3-hydroxyazetidine-trans-1-carboxylate] showed an EC50 of at most 10 nM.

`CC[C@H]1[C@@H](O)[C@@H]2[C@H](CC[C@]3(C)[C@@H]([C@H](C)CCC(=O)O)CC[C@@H]23)[C@@]2(C)CC[C@@H](O)C[C@@H]12` [OCA, Obeticholic acid]: the adverse side effects result in data set [2] is “adverse side effects at higher administered doses, such as pruritis, increased LDL cholesterol and liver toxicity”.

Values taken from patent publication US12491160B2, “Formulations of a farnesoid X receptor agonist” (ELI LILLY AND COMPANY, priority 2020, dated 2025).
